Earlier results, collected in patent US20030087395A1, “Cardiotrophin-like cytokine” (Human Genome Sciences, Inc., priority 1997, published 2003).

B1: OnM: gp130 family ligand (Pleiotropic) (protein, UniProt P13725 26-221, looked up)
Oncostatin-M: AAIGSCSKEYRVLLGQLQKQTDLMQDTSRLLDPYIRIQGLDVPKLREHCRERPGAFPSEETLRGLGRRGFLQTLNATLGCVLHRLADLEQRLPKAQDLERSGLNIEDLEKLQMARPNILGLRNNIYCMAQLLDNSDTAEPTKAGRGASQPPTPTPASDAFQRKLEGCRFLHGYHRFMHSVGRVFSKWGESPNRSRR
B2: CNTF: gp130 family ligand (Pleiotropic) (protein)
chain: MAFTEHSPLTPHRRDLCSRSIWLARKIRSDLTALTESYVKHQGLNKNINLDSADGMPVASTDQWSELTEAERLQENLQAYRTFHVLLARLLEDQQVHFTPTEGDFHQAIHTLLLQVAAFAYQIEELMILLEYKIPRNEADGMPINVGDGGLFEKKLWGLKVLQELSQWTVRSIHDLRFISSHQTGIPARGSHYIANNKKM
modifications: homo sapiens
B3: IL-12: gp130 family ligand (Pleiotropic) (protein, UniProt P29459 23-219; P29460 23-328, looked up)
Interleukin-12 subunit alpha: RNLPVATPDPGMFPCLHHSQNLLRAVSNMLQKARQTLEFYPCTSEEIDHEDITKDKTSTVEACLPLELTKNESCLNSRETSFITNGSCLASRKTSFMMALCLSSIYEDLKMYQVEFKTMNAKLLMDPKRQIFLDQNMLAVIDELMQALNFNSETVPQKSSLEEPDFYKTKIKLCILLHAFRIRAVTIDRVMSYLNAS
Interleukin-12 subunit beta: IWELKKDVYVVELDWYPDAPGEMVVLTCDTPEEDGITWTLDQSSEVLGSGKTLTIQVKEFGDAGQYTCHKGGEVLSHSLLLLHKKEDGIWSTDILKDQKEPKNKTFLRCEAKNYSGRFTCWWLTTISTDLTFSVKSSRGSSDPQGVTCGAATLSAERVRGDNKEYEYSVECQEDSACPAAEESLPIEVMVDAVHKLKYENYTSSFFIRDIIKPDPPKNLQLKPLKNSRQVEVSWEYPDTWSTPHSYFSLTFCVQVQGKSKREKKDRVFTDKTSATVICRKNASISVRAQDRYYSSSWSEWASVPCS
B4: IL-10: ligand of the IFN family in the Jaks-STATs table (protein, UniProt P22301 19-178, looked up)
Interleukin-10: SPGQGTQSENSCTHFPGNLPNMLRDLRDAFSRVKTFFQMKDQLDNLLLKESLLEDFKGYLGCQALSEMIQFYLEEVMPQAENQDPDIKAHVNSLGENLKTLRLRLRRCHRFLPCENKSKAVEQVKNAFNKLQEKGIYKAMSEFDIFINYIEAYMTMKIRN
B5: IL-11: gp130 family ligand (Pleiotropic) (protein, UniProt P20809 22-199, looked up)
Interleukin-11: PGPPPGPPRVSPDPRAELDSTVLLTRSLLADTRQLAAQLRDKFPADGDHNLDSLPTLAMSAGALGALQLPGVLTRLRADLLSYLRHVQWLRRAGGSSLKTLEPELGTLQARLDRLLRRLQLLMSRLALPQPPPDPPAPPLAPPSSAWGGIRAAHAILGGLHLTLDWAVRGLLLLKTRL
B6: G-CSF: gp130 family ligand (Pleiotropic) (protein, UniProt P09919 31-207, looked up)
Granulocyte …: TPLGPASSLPQSFLLKCLEQVRKIQGDGAALQEKLVSECATYKLCHPEELVLLGHSLGIPWAPLSSCPSQALQLAGCLSQLHSGLFLYQGLLQALEGISPELGPTLDTLQLDVADFATTIWQQMEELGMAPALQPTQGAMPAFASAFQRRAGGVLVASHLQSFLEVSYRVLRHLAQP

Experiments:
STATS = conditions: numbers of the STATs activated; adapted from Schidler and Darnell review; cited from earlier work
GAS or ISRE = conditions: element bound; adapted from Schidler and Darnell review; cited from earlier work

Molecule	STATS (STATS)	GAS or ISRE (GAS or ISRE)
EGF: ligand of Receptor Tyrosine Kinases	1,3	GAS (IRF1)
GH: Growth hormone family ligand	5	–
GM-CSF: gp140 family ligand (myeloid)	5	GAS
IL-5: gp140 family ligand (myeloid)	5	GAS
IL-6: gp130 family ligand (Pleiotropic)	1,3	GAS
IL-9: g-C family ligand (lymphocytes)	5	GAS
IL-13: g-C family ligand (lymphocyte)	6	GAS
IL-15: g-C family ligand	5	GAS
PDGF	1,3	–
B1	1,3	–
B2	1,3	–
B3	1,3	–
B4	1,3	–
B5	1,3	–
B6	1,3	–
